Source: patent US5439915A, “Pyrido[3,4-B]indole carboxamide derivatives as serotonergic agents” (American Home Products Corporation, priority 1994, dated 1995)

Molecular target: T1, 5-HT1A serotonin receptor (Rattus norvegicus, UniProt P19327)
T1 construct: following the procedure of Hall et al., J. Neurochem; 44 1685 (1985); from tissue
T1 sequence (P19327 1-422): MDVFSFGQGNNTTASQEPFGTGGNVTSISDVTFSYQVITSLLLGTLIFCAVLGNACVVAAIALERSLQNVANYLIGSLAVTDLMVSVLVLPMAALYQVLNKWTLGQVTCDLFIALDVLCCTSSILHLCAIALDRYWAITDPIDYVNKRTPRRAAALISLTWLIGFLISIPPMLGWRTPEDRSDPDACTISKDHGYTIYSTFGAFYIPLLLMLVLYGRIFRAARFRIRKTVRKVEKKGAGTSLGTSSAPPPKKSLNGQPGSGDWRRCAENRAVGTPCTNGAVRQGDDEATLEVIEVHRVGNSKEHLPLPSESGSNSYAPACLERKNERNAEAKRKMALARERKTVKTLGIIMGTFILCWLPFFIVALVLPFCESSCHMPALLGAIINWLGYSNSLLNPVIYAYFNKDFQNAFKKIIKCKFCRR
Test: displacement of [^3 H] 8-OHDPAT (dipropylaminotetralin) from the 5-HT1A serotonin receptor (Hall et al.)
Details: read-out: 5-HT1A Binding (IC50)
Protocol: High affinity for the serotonin 5-HT1A receptor for the compounds of this invention was established by testing them in accordance with the standard pharmacological test procedure in which the compound's ability to displace [^3 H] 8-OHDPAT (dipropylaminotetralin) from the 5-HT1A serotonin receptor was determined following the procedure of Hall et al., J. Neurochem. 44 1685 (1985).

C[C@H](CN1CCc2c(n(C)c3ccccc23)C1)N(C(=O)C1CCCCC1)c1ccccn1 [Example 3]
IC50: 78.1 nM

C[C@H](CN1CCc2c([nH]c3ccccc23)C1)N(C(=O)C1CCCCC1)c1ccccn1 [Example 1]
IC50: 34.9 nM

C[C@H](CN1CCc2c([nH]c3ccccc23)C1)N(C(=O)C12CC3CC(CC(C3)C1)C2)c1ccccn1 [Example 2]
IC50: 32.5 nM
